Experimental findings from patent US9157067B2, “Pluripotent cells from mammalian late epiblast layer” (priority 2006, dated 2015) are described below.

Common to all, as to assay type: cell-based
For assay [1], the system named is Rat EpiSCs. Kind of assay: Oct-4 immunostaining of rat EpiSCs grown in supplemented CDM. To be noted: for expression of the pluripotency marker Oct-4: after one week in CDM, 5B431542 10 uM, BMP4 10 ng/ml + 5B431542 10 uM, Activin 10 ng/ml + Noggin 100 ng/ml. The method, then: hESCs, mouse ESCs or EpiSCS were fixed for 20 minutes at 4° C. in 4% paraformaldehyde (PFA) and then washed three times in PBS. Cells were incubated for 20 minutes at room temperature in PBS containing 10% goat serum (Serotec) and subsequently incubated over night at 4° C. with primary antibody diluted in 1% goat serum in PBS as follows: SSEA-3 (1:100, Santa Cruz), SSAE-1 (1:25, gift from PW Andrews), Tra-1-60 (1:100, Santa CruZ), Oct-4 (1:100, SantaCruz), Sox2 (1:100, Abeam ab15830), Nanog (1:100, Abeam), Blirnpl (Abeam). Cells were then washed three times in PBS and incubated with fluorescein-Isothiocyanate-conjugated anti-mouse IgG or IgM (Sigma 1:200 in 1% goat serum in PBS) or rat IgM (Jackson laboratory 1:300 in goat serum in PBS) or rabbit IgG (Jackson laboratory 1:200 in donkey serum in PBS) for two hours at room temperature. Unbound secondary antibody was removed by 3 washes in PBS. Hoechst 33258 was added to the first wash (Sigma 1:10000).
Rat EpiSCs were grown in CDM supplemented in the presence of Activin (10 ng/ml), 5B431542 (10 uM), BMP4 10 ng/ml+5B431542 (10 uM) or Activin (10 ng/ml)+Noggin (IOOng/ml). After one week, the expression of the pluripotency marker Oct-4 was analysed using immunostaining. […] Similar results were obtained with mouse EpiSCs.

The test system of assay [2] is mouse late epiblast layer. Kind of assay: Derivation of EpiSC lines from mouse late epiblast layers. The following applies: dissected mouse epiblasts in CDM with BMP4 (50 ng/ml) and LIF. The method, then:
Similar culture conditions were tested for derivation of pluripotent cells from pre- and post-implantation rodent embryos. […] For derivation at post implantation stages, the late epiblast layer of embryos at pre- or early gastrulation stages (5.5 dpc or 6.5 dpc) was separated from extraembryonic tissues by microdissection using Cell Dissociation Buffer (Invitrogen) at 4° C. for 15-20 min. to promote dissociation of the layers. […] After 24 hours, the epiblast layers formed colonies of compact cells having a high nucleo-cytoplasmic ratio, a characteristic morphological trait of pluripotent embryonic stem cells. Cells on the edge of the colony started to differentiate the following day, thereby producing a broad ring of stromal cells surrounding smaller aggregates of compact cells. These heterogeneous populations proceeded to form larger colonies of cells 4-5 days later. The latter colonies were picked, dissociated into smaller clumps using collagenase IV (Invitrogen) and then transferred to new dishes. Resulting colonies were passaged again 5 days later using collagenase and mechanical dissociation. […] These cells were designated Epiblast Stem Cells (EpiSCs) on the basis of their origin from pure epiblast cell layers.
Dissected mouse epiblasts were grown in CDM supplemented with BMP4 (50 ng/ml) and LIF, two growth factors required to maintain the pluripotent status of mouse ESCs.

The test system of assay [3] is rat epiblast layers. Kind of assay: Derivation of EpiSC lines from rat epiblast layers. To be noted: addition to CDM supplemented with Activin. From the text: The hypothesis that Activin and FGF signalling in pluripotency are conserved in mammalian development is supported by the ability of Activin/Nodal signalling to maintain long-term pluripotency of both human ESCs and mouse EpiSCs. As a further test of this hypothesis, we attempted to derive EpiSCs from rats, a species from which embryonic stem cell derivation has been problematic. Following the method we established in the mouse, epiblast layers were dissected from rat embryos at pre-gastrula stages (E 7.5-8.5) and grown on fibronectin-coated or FBS coated plates in CDM supplemented with Activin and FGF. […] Nevertheless, four EpiSC lines were derived out of 14 embryos of the Wistar strain and 1 EpiSC line was derived out of 20 embryos from the Sprague-Dawley strain using CDM supplemented with Activin alone.

On to `NC(=O)c1ccc(-c2nc(-c3ccccn3)c(-c3ccc4c(c3)OCO4)[nH]2)cc1` [5B431542, reference compound], for which the “expression of the pluripotency marker Oct-4” value in assay [1] is “loss of Oct-4 expression”. Besides, the “differentiation of EpiSCs” value in assay [1] (inhibition of Activin/Nodal signalling) is given as “induced rapid differentiation of EpiSCs”.

Regarding “BMP4: growth factor required with LIF to maintain mouse ESC pluripotency”, the “derivation of EpiSC lines” value in assay [2] is given as “not able to derive any EpiSC lines”. The “expression of the pluripotency marker Oct-4” value in assay [1] is reported as “not able to rescue the pluripotent status of EpiSCs”.

For “EGF: growth factor added to rat epiblast cultures”, in assay [3], the “differentiation of early epiblast cultures” value is recorded as “induced differentiation”.

Take FGF2: fibroblast growth factor 2: in assay [3], the “differentiation of early epiblast cultures” value was “induced differentiation”.

On to “HGF: growth factor added to rat epiblast cultures”, for which, in assay [3], the “differentiation of early epiblast cultures” value is recorded as “induced differentiation”.

Consider LIF: Leukaemia Inhibitory Factor, for which the “derivation of EpiSC lines” value in assay [2] is listed as “not able to derive any EpiSC lines”.
